Reference: PMC6675780, “Monitoring activities of receptor tyrosine kinases using a universal adapter in genetically encoded split TEV assays” (Cellular and Molecular Life Sciences: CMLS, 2019)
Read-outs that look alike come from different tables or passages of the source.

Assays:
[1] = target: MET (Homo sapiens, UniProt P08581); experiment: Split TEV recruitment assay, MET-NTEV-tcs-GV in PC12 cells; details: SH2(GRB2)-CTEV adapter, constant HGF stimulus
Procedure: (§1) Split TEV recruitment assays were run in six replicates per condition in 96-well plates. 50,000 PC12 cells per well were seeded onto poly-L-lysine (PLL)-coated plates. The next day, cells were transfected with assay plasmids using Lipofectamine 2000. For transfection-based assays, no antibiotics were added to the medium. Per 96-well, a receptor-NTEV-tcs-GV fusion plasmid (10 ng), an adapter-CTEV fusion plasmid for either SHC1 (10 ng), SH2(SHC1) (10 ng), SH2(GRB2) (10 ng), SH2(mix) (10 ng), PIK3R1(50 ng), SH2(PIK3R1) (50 ng), or GRB2 (2.5 ng), and an Fluc reporter plasmid (10 ng, Fluc driven by 10x clustered upstream activating sequences coupled to a minimal CMV promoter, 10 × UAS-minCMVp) were used. […] 16 h later (day 4), the medium was removed, and cells were lysed using Passive Lysis Buffer (Promega) and luciferase activity was analysed using a dual luciferase assay (Promega) in a Mithras LB 940 Multimode Microplate Reader (Berthold Technologies). […] Error bars are calculated as standard error of the mean (SEM).
(§2) For split TEV recruitment assays in a dose–response format, the following amendments to the general protocol were made. […] Error bars are calculated as standard error of the mean (SEM).

[2] = target: IGF1R (Homo sapiens, UniProt P08069); experiment: Split TEV recruitment assay, IGF1R-NTEV-tcs-GV in PC12 cells; details: SH2(GRB2)-CTEV adapter, constant IGF1 stimulus
IGF1R, sequence (P08069 31-1367): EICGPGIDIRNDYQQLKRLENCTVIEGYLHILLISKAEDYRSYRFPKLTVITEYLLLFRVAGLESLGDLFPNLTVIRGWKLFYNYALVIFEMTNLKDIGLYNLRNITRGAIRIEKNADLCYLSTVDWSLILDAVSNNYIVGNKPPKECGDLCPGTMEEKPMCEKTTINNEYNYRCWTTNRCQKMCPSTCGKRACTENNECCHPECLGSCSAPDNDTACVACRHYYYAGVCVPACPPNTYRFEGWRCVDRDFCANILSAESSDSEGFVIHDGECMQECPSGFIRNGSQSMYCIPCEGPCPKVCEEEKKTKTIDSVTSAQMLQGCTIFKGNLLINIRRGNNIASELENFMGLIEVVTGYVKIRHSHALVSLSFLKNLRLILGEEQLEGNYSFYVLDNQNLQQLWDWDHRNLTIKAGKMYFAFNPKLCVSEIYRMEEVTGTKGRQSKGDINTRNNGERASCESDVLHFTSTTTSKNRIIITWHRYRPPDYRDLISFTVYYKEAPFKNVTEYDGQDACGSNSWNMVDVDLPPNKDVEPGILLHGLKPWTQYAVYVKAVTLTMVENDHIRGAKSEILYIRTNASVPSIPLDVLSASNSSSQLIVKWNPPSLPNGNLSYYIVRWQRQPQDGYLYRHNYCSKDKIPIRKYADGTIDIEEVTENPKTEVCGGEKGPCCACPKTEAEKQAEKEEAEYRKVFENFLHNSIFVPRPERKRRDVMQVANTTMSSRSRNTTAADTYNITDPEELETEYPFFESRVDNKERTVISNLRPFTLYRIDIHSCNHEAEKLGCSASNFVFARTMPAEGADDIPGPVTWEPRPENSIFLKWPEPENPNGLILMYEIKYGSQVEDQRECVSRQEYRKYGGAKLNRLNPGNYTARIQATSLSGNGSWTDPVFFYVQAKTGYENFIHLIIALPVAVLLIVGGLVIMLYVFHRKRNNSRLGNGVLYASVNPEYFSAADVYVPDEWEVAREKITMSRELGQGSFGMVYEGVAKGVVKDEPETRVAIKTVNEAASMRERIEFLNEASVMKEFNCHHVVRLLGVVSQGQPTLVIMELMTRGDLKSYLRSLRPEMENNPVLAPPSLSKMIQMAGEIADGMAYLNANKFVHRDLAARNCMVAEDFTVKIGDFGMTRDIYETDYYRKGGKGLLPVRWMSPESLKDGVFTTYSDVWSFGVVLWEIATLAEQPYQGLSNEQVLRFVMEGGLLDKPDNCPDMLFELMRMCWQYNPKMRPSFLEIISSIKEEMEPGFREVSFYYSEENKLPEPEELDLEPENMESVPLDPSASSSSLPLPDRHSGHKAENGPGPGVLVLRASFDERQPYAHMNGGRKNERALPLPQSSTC
Procedure: as §1, §2

[3] = test system: PC12 cells; experiment: Constitutive Renilla luciferase readout to assess toxic effects; format: cell-based; details: split TEV dose-response assays
Procedure: For split TEV recruitment assays in a dose–response format, the following amendments to the general protocol were made. For a dose–response assay, all cells on the plate were transfected with the same receptor-NTEV-tcs-GV and adapter-CTEV fusions, the Fluc reporter plasmid, 1 ng of a plasmid constitutively expressing Renilla luciferase driven by a thymidine kinase promoter, and the EYFPnuc expressing plasmid. Renilla luciferase was used to assess toxic effects when applying compounds. For dose-dependent stimulation testing activation, six wells per condition were stimulated using increasing concentrations of an agonist at a semi-logarithmic scale. For assays testing inhibition, cells were treated with increasing concentrations of an antagonist at a semi-logarithmic scale, followed 1 h later by the addition of an agonist at a constant concentration. […] Dose–response data were analysed using the R-based ‘drc’ package, as described before. Error bars are calculated as standard error of the mean (SEM). For ease of presentation and intuition, we have transformed conventionally used IC50 values into pIC50 values. These are calculated from IC50 values using the formula pIC50 = − log10(IC50), with units of molar for IC50 and therefore log(molar) for pIC50.

[4] = target: ERBB2/ERBB3 (Homo sapiens, UniProt P04626+P21860); experiment: Split TEV recruitment assay, ERBB3-NTEV-tcs-GV with co-transfected ERBB2 in PC12 cells; details: SH2(GRB2)-CTEV adapter, constant EGFld
Procedure: as §1, §2

[5] = test system: ERBB4; design: method as in PMID 28743784; details: split TEV dimerisation assay; cited from earlier work
[6] = target: ERBB4 (Homo sapiens, UniProt Q15303); experiment: Split TEV recruitment assay, ERBB4-NTEV-tcs-GV in PC12 cells; details: for Antagonistic effect on ERBB4 activity: SH2(GRB2)-CTEV adapter, PC12 cells, constant EGFld
ERBB4 (Homo sapiens, UniProt Q15303), sequence (Q15303 26-1308): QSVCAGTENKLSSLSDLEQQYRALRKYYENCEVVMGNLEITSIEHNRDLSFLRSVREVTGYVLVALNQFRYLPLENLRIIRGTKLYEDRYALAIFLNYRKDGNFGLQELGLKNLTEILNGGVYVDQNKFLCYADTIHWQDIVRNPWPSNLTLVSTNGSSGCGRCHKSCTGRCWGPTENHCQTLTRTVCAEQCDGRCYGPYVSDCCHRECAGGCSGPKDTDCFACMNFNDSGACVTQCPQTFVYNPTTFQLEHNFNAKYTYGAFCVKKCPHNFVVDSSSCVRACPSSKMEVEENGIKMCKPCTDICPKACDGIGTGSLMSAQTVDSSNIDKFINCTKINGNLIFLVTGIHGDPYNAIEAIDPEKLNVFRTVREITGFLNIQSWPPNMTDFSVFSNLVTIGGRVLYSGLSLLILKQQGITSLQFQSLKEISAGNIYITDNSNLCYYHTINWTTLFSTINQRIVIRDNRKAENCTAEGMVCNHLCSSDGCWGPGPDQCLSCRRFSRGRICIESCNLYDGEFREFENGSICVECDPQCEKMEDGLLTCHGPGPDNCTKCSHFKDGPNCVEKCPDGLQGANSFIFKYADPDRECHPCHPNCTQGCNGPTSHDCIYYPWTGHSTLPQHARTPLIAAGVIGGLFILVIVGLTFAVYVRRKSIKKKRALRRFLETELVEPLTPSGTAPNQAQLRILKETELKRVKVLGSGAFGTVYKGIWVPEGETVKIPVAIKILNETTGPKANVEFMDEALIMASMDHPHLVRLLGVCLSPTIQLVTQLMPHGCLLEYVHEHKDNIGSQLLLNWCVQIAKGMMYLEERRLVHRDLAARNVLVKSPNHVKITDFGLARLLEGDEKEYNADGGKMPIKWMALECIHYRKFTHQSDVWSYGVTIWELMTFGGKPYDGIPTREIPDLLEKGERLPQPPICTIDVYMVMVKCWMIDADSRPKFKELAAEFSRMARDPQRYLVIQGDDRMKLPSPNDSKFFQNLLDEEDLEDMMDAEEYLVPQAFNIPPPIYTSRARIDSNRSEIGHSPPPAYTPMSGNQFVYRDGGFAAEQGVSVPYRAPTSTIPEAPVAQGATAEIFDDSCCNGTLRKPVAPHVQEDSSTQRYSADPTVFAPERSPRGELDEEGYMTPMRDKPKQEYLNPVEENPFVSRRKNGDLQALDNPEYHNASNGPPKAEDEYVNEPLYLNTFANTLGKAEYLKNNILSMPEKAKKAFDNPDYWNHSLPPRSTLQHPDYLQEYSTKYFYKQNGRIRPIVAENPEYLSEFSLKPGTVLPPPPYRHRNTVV
Procedure: Split TEV recruitment assays were run in six replicates per condition in 96-well plates. 50,000 PC12 cells per well were seeded onto poly-L-lysine (PLL)-coated plates. The next day, cells were transfected with assay plasmids using Lipofectamine 2000. For transfection-based assays, no antibiotics were added to the medium. Per 96-well, a receptor-NTEV-tcs-GV fusion plasmid (10 ng), an adapter-CTEV fusion plasmid for either SHC1 (10 ng), SH2(SHC1) (10 ng), SH2(GRB2) (10 ng), SH2(mix) (10 ng), PIK3R1(50 ng), SH2(PIK3R1) (50 ng), or GRB2 (2.5 ng), and an Fluc reporter plasmid (10 ng, Fluc driven by 10x clustered upstream activating sequences coupled to a minimal CMV promoter, 10 × UAS-minCMVp) were used. Additionally, 1 ng of a plasmid constitutively expressing an EYFP that is fused to nuclear localisation sequence (EYFPnuc) driven by a CMV promoter was transfected per 96-well to assess transfection efficiencies (EYFPnuc). In detail, assay plasmids were diluted in 30 µl Opti-MEM (Thermo Fisher Scientific), vortexed, and mixed with 0.2 µl Lipofectamine 2000 per well. The DNA/Lipofectamine/Opti-MEM mix was incubated for 20 min. The medium was removed from the wells and the DNA/Lipofectamine/Opti-MEM mix was added onto the cells. After 2 h of incubation, the maintenance medium without antibiotics was added to the Opti-MEM mix. On day 2, the maintenance medium was replaced by starvation medium. […] 16 h later (day 4), the medium was removed, and cells were lysed using Passive Lysis Buffer (Promega) and luciferase activity was analysed using a dual luciferase assay (Promega) in a Mithras LB 940 Multimode Microplate Reader (Berthold Technologies). […] Error bars are calculated as standard error of the mean (SEM).
as §2

[7] = target: EGFR (Homo sapiens, UniProt P00533); experiment: Split TEV recruitment assay, EGFR-NTEV-tcs-GV in PC12 cells; details: SH2(GRB2)-CTEV adapter, constant EGF
EGFR (Homo sapiens, UniProt P00533), sequence (P00533 25-1210): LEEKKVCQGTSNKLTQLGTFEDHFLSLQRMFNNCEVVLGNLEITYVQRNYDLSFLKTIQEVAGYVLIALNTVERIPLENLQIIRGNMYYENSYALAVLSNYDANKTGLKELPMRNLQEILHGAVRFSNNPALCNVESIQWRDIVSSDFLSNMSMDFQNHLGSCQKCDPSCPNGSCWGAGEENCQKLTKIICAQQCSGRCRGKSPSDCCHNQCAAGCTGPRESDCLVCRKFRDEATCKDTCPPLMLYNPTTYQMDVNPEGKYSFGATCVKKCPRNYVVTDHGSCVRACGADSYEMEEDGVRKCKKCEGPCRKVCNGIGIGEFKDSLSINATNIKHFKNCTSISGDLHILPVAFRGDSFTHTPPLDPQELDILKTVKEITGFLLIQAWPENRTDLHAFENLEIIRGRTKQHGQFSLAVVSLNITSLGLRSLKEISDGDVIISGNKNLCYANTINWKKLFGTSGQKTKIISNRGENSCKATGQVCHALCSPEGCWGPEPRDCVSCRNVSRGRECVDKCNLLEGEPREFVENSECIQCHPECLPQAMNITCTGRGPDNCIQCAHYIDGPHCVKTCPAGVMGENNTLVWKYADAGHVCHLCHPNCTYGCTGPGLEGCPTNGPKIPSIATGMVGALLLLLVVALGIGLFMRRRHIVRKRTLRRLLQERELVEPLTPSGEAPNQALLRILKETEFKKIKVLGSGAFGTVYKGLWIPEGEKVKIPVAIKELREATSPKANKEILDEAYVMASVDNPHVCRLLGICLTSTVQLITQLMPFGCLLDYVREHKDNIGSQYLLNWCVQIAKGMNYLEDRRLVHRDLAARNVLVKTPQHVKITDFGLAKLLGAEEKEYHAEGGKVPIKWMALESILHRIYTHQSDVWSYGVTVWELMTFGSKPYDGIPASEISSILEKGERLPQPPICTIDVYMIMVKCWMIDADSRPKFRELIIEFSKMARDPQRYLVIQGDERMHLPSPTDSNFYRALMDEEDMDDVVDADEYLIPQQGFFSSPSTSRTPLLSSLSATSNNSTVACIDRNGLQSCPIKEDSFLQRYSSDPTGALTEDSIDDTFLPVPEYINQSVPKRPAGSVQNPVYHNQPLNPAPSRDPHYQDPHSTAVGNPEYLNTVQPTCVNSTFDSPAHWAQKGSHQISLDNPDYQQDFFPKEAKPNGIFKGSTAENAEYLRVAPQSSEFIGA
Procedure: as §1, §2

[8] = test system: EGFR; details: Biochemical, AID 1204628; cited from earlier work
[9] = test system: ERBB4; details: Biochemical, AID 1204629; cited from earlier work
[10] = test system: EGFR; details: Western blotting, cellular lysates, AID 770081; cited from earlier work
[11] = target: ERBB3; details: Biochemical, AID 1204629; cited from earlier work
[12] = target: ERBB2; details: Biochemical, AID 1204629; cited from earlier work

Inhibition of IGF1R activity [2]	Antagonistic effect on ERBB2/ERBB3 activity [4]	Antagonistic effect on ERBB4 activity [6]	Antagonistic effect on EGFR activity [7]	Compound	Concentration at which toxic effects occur (constitutive Renilla luciferase readout) [3] [µM]	further results
	inhibited	inhibited	inhibited	CC(=O)S[C@@H]1CC2=CC(=O)CC[C@]2(C)[C@H]2CC[C@@]3(C)[C@@H](CC[C@@]34CCC(=O)O4)[C@H]12 [Spironolactone, spironolactone]		Selectivity among ERBB receptors [5]: selectivity for ERBB4 over EGFR; Selectivity among ERBB receptors ([6]; split TEV recruitment assays, SH2(GRB2) adapter): some selectivity for ERBB4 over EGFR
	did not exhibit any antagonistic effects	did not exhibit any antagonistic effects	did not exhibit any antagonistic effects	C[C@]12CCC(=O)C=C1C=C[C@@H]1[C@@H]2CC[C@@]2(C)[C@H]1CC[C@@]21CCC(=O)O1 [canrenone]		

Further lines, the molecule ahead of its results:

Compound	Inhibition of IGF1R activity [2]	Antagonistic effect on ERBB2/ERBB3 activity [4]	Antagonistic effect on ERBB4 activity [6]	Antagonistic effect on EGFR activity [7]	Concentration at which toxic effects occur (constitutive Renilla luciferase readout) [3] [µM]	further results
CS(=O)(=O)CCNCc1ccc(-c2ccc3ncnc(Nc4ccc(OCc5cccc(F)c5)c(Cl)c4)c3c2)o1 [Lapatinib, lapatinib]	did not inhibit				30	Inhibition of MET activity [1]: did not inhibit
C=CC(=O)Nc1cccc(Oc2nc(Nc3ccc(N4CCN(C)CC4)cc3OC)ncc2Cl)c1 [WZ4002]						pIC50 [8]: 7.79; pIC50 [9]: 9.37; pIC50 [10]: 5.93; IC50 (nM)/KD [11]: 0.42 nM; pIC50 [11]: 9.37; IC50 (nM)/KD [12]: 0.42 nM; pIC50 [12]: 9.37
COc1cc2c(Oc3ccc(NC(=O)C4(C(=O)Nc5ccc(F)cc5)CC4)cc3F)ccnc2cc1OCCCN1CCOCC1 [foretinib]					30	
C[C@]1(O)C[C@@H](c2nc(-c3ccc4ccc(-c5ccccc5)nc4c3)c3c(N)nccn32)C1 [linsitinib]	efficiently inhibited				30	
